Data: patent US11339157B1, “4H-pyrrolo[3,2-c]pyridin-4-one derivatives” (Bayer Aktiengesellschaft, priority 2017, dated 2022)
Where two headings read alike, the source gives them in different places.

Tests used:
Bub1 = Bub1 (Homo sapiens (Human), UniProt O43683); assay: Bub1 kinase assay (TR-FRET, 10 μM ATP); format: biochemical; details: mean, read-out: Bub1 kinase assay IC50 [mol/l] (mean)
Description: Bub1-inhibitory activities of compounds described in the present invention were quantified using a time-resolved fluorescence energy transfer (TR-FRET) kinase assay which measures phosphorylation of the synthetic peptide Biotin-Ahx-[…]—SEQ ID NO: 5 (C-terminus in amide form), purchased from e.g. Biosyntan (Berlin, Germany) by the (recombinant) catalytic domain of human Bub1 (amino acids 704-1085), expressed in Hi5 insect cells with an N-terminal His6-tag (SEQ ID NO: 9) and purified by affinity-(Ni-NTA) and size exclusion chromatography.
In a typical assay 11 different concentrations of each compound (0.1 nM, 0.33 nM, 1.1 nM, 3.8 nM, 13 nM, 44 nM, 0.15 μM, 0.51 μM, 1.7 μM, 5.9 μM and 20 μM) were tested in duplicate within the same microtiter plate. To this end, 100-fold concentrated compound solutions (in DMSO) were previously prepared by serial dilution (1:3.4) of 2 mM stocks in a clear low volume 384-well source microtiter plate (Greiner Bio-One, Frickenhausen, Germany), from which 50 nl of compounds were transferred into a black low volume test microtiter plate from the same supplier. […] The resulting mixture (5 μl final volume) was incubated at 22° C. during 60 min., and the reaction was stopped by the addition of 5 μl of an aqueous EDTA-solution (50 mM EDTA, in 100 mM HEPES pH 7.5 and 0.2% (w/v) bovine serum albumin) which also contained the TR-FRET detection reagents (0.2 μM streptavidin-XL665 [Cisbio Bioassays, Codolet, France] and 1 nM anti-phosho-Serine antibody [Merck Millipore, cat. #35-002] and 0.4 nM LANCE EU-W1024 labeled anti-mouse IgG antibody [Perkin-Elmer, product no. AD0077, alternatively a Terbium-cryptate-labeled anti-mouse IgG antibody from Cisbio Bioassays can be used]). The stopped reaction mixture was further incubated 1 h at 22° C. in order to allow the formation of complexes between peptides and detection reagents. Subsequently, the amount of product was evaluated by measurement of the resonance energy transfer from the Eu-chelate-antibody complex recognizing the Phosphoserine residue to the streptavidin-XL665 bound to the biotin moiety of the peptide. To this end, the fluorescence emissions at 620 nm and 665 nm after excitation at 330-350 nm were measured in a TR-FRET plate reader, e.g. a Rubystar or Pherastar (both from BMG Labtechnologies, Offenburg, Germany) or a Viewlux (Perkin-Elmer) and the ratio of the emissions (665 nm/[…]) was taken as indicator for the amount of phosphorylated substrate. The data were normalised using two sets of control wells for high-(=enzyme reaction without inhibitor=0%=Minimum inhibition) and low-(=all assay components without enzyme=100%=Maximum inhibition) Bub1 activity. IC50 values were calculated by fitting the normalized inhibition data to a 4-parameter logistic equation (Minimum, Maximum, IC50, Hill; Y=Max+(Min−Max)/(1+(X/IC50)Hill)).

[1] = target: EGFR ins SVD (insertion of SVD between D770 and N771) (Homo sapiens, UniProt P00533, INS767SVD); assay: Exon 20-Mutant-EGFR(D770_N771insSVD) kinase assay (TR-FRET); format: biochemical
Ba/F3-EGFR-insSVD cells = assay: Proliferation assay in BA/F3 (ins SVD) cells (Cell Titer-Glo); format: cell-based; details: Table 10, plated without EGF
Method in brief: (§1)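 Ba/F3 cells stably expressing retrovirally transduced EGFR-WT or EGFR-insSVD; WT cells plated with 10 ng/mL EGF, insSVD cells without EGF. Compound exposure 48 h at 37° C; viability read by CellTiter-Glo luminescence.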

[2] = target: EGFR ins ASV (insertion of ASV between V769 and D770); assay: Exon 20-Mutant-EGFR(V769_D770insASV) kinase assay (TR-FRET); format: biochemical, human; details: 2 mM ATP
Description: Exon 20-Mutant-EGFR(V769_D770insASV) Kinase Assay
Inhibitory activity of compounds of the present invention against an Epidermal Growth Factor Receptor (EGFR) with an insertion of the amino acids sequence ASV between V769 and D770 was quantified employing the TR-FRET based kinase activity assay as described in the following paragraphs.
For the assay 50 nl of a 100-fold concentrated solution of the test compound in DMSO was pipetted into either a black low volume 384well microtiter plate or a black 1536 well microtiter plate (both Greiner Bio-One, Frickenhausen, Germany), 2 μl of a solution of EGFR in aqueous assay buffer [50 mM Hepes pH 7.0, 10 mM MgCl2, 1 mM dithiothreitol, 0.5 mM EGTA, 0.3 mM activated sodium ortho-vanadate, 0.005% (w/v) bovine serum albumin, 0.005% (v/v) Tween-20] were added and the mixture was incubated for 15 min at 22° C. to allow pre binding of the test compounds to the enzyme before the start of the kinase reaction. […] The concentration of EGFR was adjusted depending of the activity of the enzyme lot and was chosen appropriate to have the assay in the linear range, typical concentration was 2.5 pg/μl. The reaction was stopped by the addition of 3 μl of a solution of HTRF detection reagents (83.3 nM streptavidine-XL665 [Cisbio Bioassays, Codolet, France] and 1.67 nM PT66-Tb-Cryptate, an terbium-cryptate labelled anti-phospho-tyrosine antibody from Cisbio Bioassays [instead of the PT66 Tb cryptate PT66 Eu Chelate from Perkin Elmer can also be used]) in an aqueous EDTA-solution (133.3 mM EDTA, 0.2% (w/v) bovine serum albumin in 50 mM HEPES pH 7.5).
The resulting mixture was incubated 1 h at 22° C. to allow the binding of the biotinylated phosphorylated peptide to the streptavidine-XL665 and the PT66-Tb-Cryptate. Subsequently the amount of phosphorylated substrate was evaluated by measurement of the resonance energy transfer from the PT66-Tb-Cryptate to the streptavidine-XL665.

Ba/F3-EGFR-WT cells = assay: Proliferation assay in BA/F3 (wild type) cells (Cell Titer-Glo); format: cell-based; details: Table 10, plated with 10 ng/mL EGF
Method in brief: as §1

[3] = 2 mM ATP, mean, read-out: EGFR ins SVD IC50 [mol/l] (mean)
[4] = Table 9, read-out: mutEGFR (D770_N771insSVD) kinase assay IC50

Sequence of Bub1 (O43683 704-1085): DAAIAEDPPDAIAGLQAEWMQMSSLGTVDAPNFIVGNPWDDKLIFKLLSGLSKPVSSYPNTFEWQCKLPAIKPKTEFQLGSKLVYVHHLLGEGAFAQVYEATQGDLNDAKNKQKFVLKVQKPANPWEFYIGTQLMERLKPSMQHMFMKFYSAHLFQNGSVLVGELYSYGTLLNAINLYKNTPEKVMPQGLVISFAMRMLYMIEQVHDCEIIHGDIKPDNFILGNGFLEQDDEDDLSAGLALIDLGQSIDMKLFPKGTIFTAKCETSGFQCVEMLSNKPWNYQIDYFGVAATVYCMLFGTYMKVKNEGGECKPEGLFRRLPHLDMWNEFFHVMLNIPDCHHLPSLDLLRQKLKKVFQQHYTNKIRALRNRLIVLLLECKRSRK
Sequence of EGFR ins SVD (insertion of SVD between D770 and N771) (P00533 with tags, fused parts or gaps INS767SVD limits assumed): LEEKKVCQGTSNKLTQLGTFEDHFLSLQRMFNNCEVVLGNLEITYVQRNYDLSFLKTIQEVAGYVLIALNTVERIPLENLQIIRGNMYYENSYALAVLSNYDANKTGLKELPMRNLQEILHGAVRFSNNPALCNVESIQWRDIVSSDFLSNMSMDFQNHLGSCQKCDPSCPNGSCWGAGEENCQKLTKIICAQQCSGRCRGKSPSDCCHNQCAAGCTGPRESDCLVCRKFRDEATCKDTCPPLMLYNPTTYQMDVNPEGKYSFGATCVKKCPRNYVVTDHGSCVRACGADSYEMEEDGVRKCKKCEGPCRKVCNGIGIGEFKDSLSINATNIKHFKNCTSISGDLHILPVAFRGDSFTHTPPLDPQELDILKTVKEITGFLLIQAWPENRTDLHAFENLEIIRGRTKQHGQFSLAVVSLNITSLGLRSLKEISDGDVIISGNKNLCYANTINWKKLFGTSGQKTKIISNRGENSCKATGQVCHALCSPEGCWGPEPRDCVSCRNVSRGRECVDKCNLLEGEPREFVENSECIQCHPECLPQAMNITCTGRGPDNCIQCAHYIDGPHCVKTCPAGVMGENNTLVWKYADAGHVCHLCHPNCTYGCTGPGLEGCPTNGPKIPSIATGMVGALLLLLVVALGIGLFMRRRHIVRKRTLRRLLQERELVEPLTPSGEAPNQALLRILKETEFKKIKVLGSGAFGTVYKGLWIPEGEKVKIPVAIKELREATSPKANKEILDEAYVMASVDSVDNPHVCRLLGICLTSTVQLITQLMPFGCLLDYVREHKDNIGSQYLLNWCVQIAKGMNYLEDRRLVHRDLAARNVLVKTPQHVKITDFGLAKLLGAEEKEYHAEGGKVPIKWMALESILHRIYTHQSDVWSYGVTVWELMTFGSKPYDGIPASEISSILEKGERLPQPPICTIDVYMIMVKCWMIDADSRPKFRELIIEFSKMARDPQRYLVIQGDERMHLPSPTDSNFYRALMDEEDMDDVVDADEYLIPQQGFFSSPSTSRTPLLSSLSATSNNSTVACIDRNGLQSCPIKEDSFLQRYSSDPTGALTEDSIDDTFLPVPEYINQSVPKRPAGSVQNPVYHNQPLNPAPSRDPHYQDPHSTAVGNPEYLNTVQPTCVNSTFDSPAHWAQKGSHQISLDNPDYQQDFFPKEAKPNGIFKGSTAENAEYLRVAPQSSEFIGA

`COCCOc1cnccc1-c1[nH]c2c(c1Nc1ccccc1OC)C(=O)NCC2` [Example 13, 2-[3-(2-methoxyethoxy)pyridin-4-yl]-3-[(2-methoxyphenyl)amino]-1,5,6,7-tetrahydro-4H-pyrrolo[3,2-c]pyridin-4-one] showed an IC50 (Bub1) of 350 nM, an IC50 [1, 3] of 4.41 nM and an IC50 [1, 4] of 4.41 nM. For the same compound, the IC50 (Ba/F3-EGFR-insSVD cells; Mus musculus, BaF3, 48 h) was 811 nM, the “EGFR ins ASV IC50 [mol] (mean)” value [2] was 3.89e-08 mol and the IC50 (Ba/F3-EGFR-WT cells; Mus musculus, BaF3, 48 h) was 4010 nM.

`COCCOc1cnccc1-c1[nH]c2c(c1Nc1ccccc1CC(F)F)C(=O)NCC2` [Example 15, 3-{[2-(2,2-difluoroethyl)phenyl]amino}-2-[3-(2-methoxyethoxy)pyridin-4-yl]-1,5,6,7-tetrahydro-4H-pyrrolo[3,2-c]pyridin-4-one] showed an IC50 (Bub1) of 187 nM, an IC50 [1, 3] of 0.489 nM and an IC50 [1, 4] of 0.489 nM. For the same compound, the IC50 (Ba/F3-EGFR-insSVD cells; Mus musculus, BaF3, 48 h) was 409 nM, the “EGFR ins ASV IC50 [mol] (mean)” value [2] was 1.34e-09 mol and the IC50 (Ba/F3-EGFR-WT cells; Mus musculus, BaF3, 48 h) was 2870 nM.

In the case of `COc1c(F)cccc1Nc1c(-c2ccncc2OCC(C)(C)OC)[nH]c2c1C(=O)NCC2` [Example 17, 3-[(3-fluoro-2-methoxyphenyl)amino]-2-[3-(2-methoxy-2-methylpropoxy)pyridin-4-yl]-1,5,6,7-tetrahydro-4H-pyrrolo[3,2-c]pyridin-4-one], the IC50 (Bub1) is reported as 55.1 nM, the IC50 [1, 3] is reported as 0.113 nM and the IC50 [1, 4] is reported as 0.113 nM. The IC50 (Ba/F3-EGFR-insSVD cells; Mus musculus, BaF3, 48 h) was 11.9 nM, the “EGFR ins ASV IC50 [mol] (mean)” value [2] was 1.77e-10 mol and the IC50 (Ba/F3-EGFR-WT cells; Mus musculus, BaF3, 48 h) was 397 nM.

In the case of `COC(C)(C)COc1cnccc1-c1[nH]c2c(c1Nc1cccc(F)c1OC(F)F)C(=O)NCC2` [Example 19, 3-{[2-(difluoromethoxy)-3-fluorophenyl]amino}-2-[3-(2-methoxy-2-methylpropoxy)pyridin-4-yl]-1,5,6,7-tetrahydro-4H-pyrrolo[3,2-c]pyridin-4-one], the IC50 (Bub1) is reported as 149 nM, the IC50 [1, 3] is reported as 0.155 nM and the IC50 [1, 4] is reported as 0.148 nM. The IC50 (Ba/F3-EGFR-insSVD cells; 48 h) was 40.1 nM, the “EGFR ins ASV IC50 [mol] (mean)” value [2] was 2.39e-10 mol and the IC50 (Ba/F3-EGFR-WT cells; 48 h) was 870 nM.

Work on `COCCOc1cnccc1-c1[nH]c2c(c1Nc1cccc(F)c1C)C(=O)NCC2` [Example 20, 3-[(3-fluoro-2-methylphenyl)amino]-2-[3-(2-methoxyethoxy)pyridin-4-yl]-1,5,6,7-tetrahydro-4H-pyrrolo[3,2-c]pyridin-4-one] yielded an IC50 (Bub1) of 67.4 nM, an IC50 [1, 3] of 0.149 nM and an IC50 [1, 4] of 0.149 nM. The IC50 (Ba/F3-EGFR-insSVD cells; Mus musculus, BaF3, 48 h) was 48.3 nM, the “EGFR ins ASV IC50 [mol] (mean)” value [2] was 3.22e-10 mol and the IC50 (Ba/F3-EGFR-WT cells; Mus musculus, BaF3, 48 h) was 625 nM.

For `COC(C)(C)COc1cnccc1-c1[nH]c2c(c1Nc1cccc(F)c1CC(F)F)C(=O)NCC2` [Example 23, 3-{[2-(2,2-difluoroethyl)-3-fluorophenyl]amino}-2-[3-(2-methoxy-2-methylpropoxy)pyridin-4-yl]-1,5,6,7-tetrahydro-4H-pyrrolo[3,2-c]pyridin-4-one], the IC50 (Bub1) was 67.3 nM, the IC50 [1, 3] was 0.259 nM and the IC50 [1, 4] was 0.191 nM. The IC50 (Ba/F3-EGFR-insSVD cells; Mus musculus, BaF3, 48 h) was 33 nM, the “EGFR ins ASV IC50 [mol] (mean)” value [2] was 3.42e-10 mol and the IC50 (Ba/F3-EGFR-WT cells; Mus musculus, BaF3, 48 h) was 388 nM.

`CCOc1c(F)cccc1Nc1c(-c2ccncc2OCC(C)(C)OC)[nH]c2c1C(=O)NCC2` [Example 26, 3-[(2-ethoxy-3-fluorophenyl)amino]-2-[3-(2-methoxy-2-methylpropoxy)pyridin-4-yl]-1,5,6,7-tetrahydro-4H-pyrrolo[3,2-c]pyridin-4-one] gave an IC50 (Bub1) of 85.8 nM, an IC50 [1, 3] of 0.268 nM and an IC50 [1, 4] of 0.415 nM. The IC50 (Ba/F3-EGFR-insSVD cells; Mus musculus, BaF3, 48 h) was 618 nM, the “EGFR ins ASV IC50 [mol] (mean)” value [2] was 9.43e-10 mol and the IC50 (Ba/F3-EGFR-WT cells; Mus musculus, BaF3, 48 h) was 2000 nM.

`COC(C)(C)COc1cnccc1-c1[nH]c2c(c1Nc1cccc(F)c1OCC(F)F)C(=O)NCC2` [Example 27, 3-{[2-(2,2-difluoroethoxy)-3-fluorophenyl]amino}-2-[3-(2-methoxy-2-methylpropoxy)pyridin-4-yl]-1,5,6,7-tetrahydro-4H-pyrrolo[3,2-c]pyridin-4-one] showed an IC50 (Bub1) of 70.1 nM, an IC50 [1, 3] of 2.14 nM and an IC50 [1, 4] of 2.14 nM. For the same compound, the IC50 (Ba/F3-EGFR-insSVD cells; Mus musculus, BaF3, 48 h) was 498 nM, the “EGFR ins ASV IC50 [mol] (mean)” value [2] was 7.09e-09 mol and the IC50 (Ba/F3-EGFR-WT cells; Mus musculus, BaF3, 48 h) was 2500 nM.

Work on `COCCOc1cnccc1-c1[nH]c2c(c1Nc1ccc(F)c(F)c1OC)C(=O)NCC2` [Example 28, 3-[(3,4-difluoro-2-methoxyphenyl)amino]-2-[3-(2-methoxyethoxy)pyridin-4-yl]-1,5,6,7-tetrahydro-4H-pyrrolo[3,2-c]pyridin-4-one] yielded an IC50 (Bub1) of 565 nM, an IC50 [1, 3] of 0.738 nM and an IC50 [1, 4] of 0.54 nM. For the same compound, the IC50 (Ba/F3-EGFR-insSVD cells; Mus musculus, BaF3, 48 h) was 644 nM, the “EGFR ins ASV IC50 [mol] (mean)” value [2] was 2.69e-08 mol and the IC50 (Ba/F3-EGFR-WT cells; Mus musculus, BaF3, 48 h) was 3670 nM.

Work on `COCCOc1cnccc1-c1[nH]c2c(c1Nc1cc(F)cc(F)c1OC)C(=O)NCC2` [Example 30, 3-[(3,5-difluoro-2-methoxyphenyl)amino]-2-[3-(2-methoxyethoxy)pyridin-4-yl]-1,5,6,7-tetrahydro-4H-pyrrolo[3,2-c]pyridin-4-one] yielded an IC50 (Bub1) of 323 nM, an IC50 [1, 3] of 0.0969 nM and an IC50 [1, 4] of 0.109 nM. The IC50 (Ba/F3-EGFR-insSVD cells; Mus musculus, BaF3, 48 h) was 149 nM, the “EGFR ins ASV IC50 [mol] (mean)” value [2] was 2.09e-10 mol and the IC50 (Ba/F3-EGFR-WT cells; Mus musculus, BaF3, 48 h) was 1860 nM.

In the case of `COc1c(F)cc(F)cc1Nc1c(-c2ccncc2OCC(C)(C)OC)[nH]c2c1C(=O)NCC2` [Example 31, 3-[(3,5-difluoro-2-methoxyphenyl)amino]-2-[3-(2-methoxy-2-methylpropoxy)pyridin-4-yl]-1,5,6,7-tetrahydro-4H-pyrrolo[3,2-c]pyridin-4-one], the IC50 (Bub1) is reported as 265 nM, the IC50 [1, 3] is reported as 0.0988 nM and the IC50 [1, 4] is reported as 0.193 nM. The IC50 (Ba/F3-EGFR-insSVD cells; Mus musculus, BaF3, 48 h) was 158 nM, the “EGFR ins ASV IC50 [mol] (mean)” value [2] was 1.61e-10 mol and the IC50 (Ba/F3-EGFR-WT cells; Mus musculus, BaF3, 48 h) was 1710 nM.
